Experimental data taken from patent US20130109734A1 (Metabolex, Inc., priority 2010, published 2013).

Legend:
human GPR120 = target: T1, human GPR120 (Homo sapiens, UniProt Q5NUL3); assay: Intracellular Ca2+ assay in human GPR120 stable cell line (HEK293 co-expressing Gqi5), Flexstation; type: cell-based; conditions: % activity at 5 μM compared to the maximal activity of GW9508 at 6.7 μM (=100%); human GPR120 cells, Ca2+ fluorescence
T1 construct: host or cells: HEK293 cells co-expressing Gqi5
T1 sequence (Q5NUL3 1-361): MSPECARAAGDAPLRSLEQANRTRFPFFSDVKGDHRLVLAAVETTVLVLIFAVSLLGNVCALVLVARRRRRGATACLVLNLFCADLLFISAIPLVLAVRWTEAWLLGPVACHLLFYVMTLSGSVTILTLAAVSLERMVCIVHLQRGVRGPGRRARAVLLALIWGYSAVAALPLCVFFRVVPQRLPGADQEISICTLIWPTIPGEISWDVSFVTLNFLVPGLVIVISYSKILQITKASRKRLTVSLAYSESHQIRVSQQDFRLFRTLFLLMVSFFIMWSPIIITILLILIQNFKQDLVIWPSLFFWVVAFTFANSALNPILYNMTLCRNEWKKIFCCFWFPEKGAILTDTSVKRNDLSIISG
How it was run: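 HEK293 cells stably co-expressing Gqi5 and Flag-tagged human GPR120, loaded with Calcium 4 dye in HBSS/HEPES pH 7.4 at 37 °C; compounds at eight concentrations, 0.00001–20 μM, fluorescence (485/525 nm) read 90 s. EC50 from Max−Min change; percent activity relative to GW9508 maximum at 6.7 μM.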

C57BL/6J mice = assay: Intra peritoneal glucose tolerance test (IPGTT); type: in vivo; conditions: Mus musculus, 2 h; C57BL/6J mice fasted overnight, compound 30 mg/kg oral gavage at -30 min, 2 g/kg glucose intra peritoneally, incremental AUC 0-120 min vs vehicle; read-out: % reduction IPGTT at 30 mg/kg
Description: 8-10 week old male C57BL/6J mice (Harlan) were maintained on regular chow diet from Harlan (2018 Teklad Global). On the day before the experiment mice were fasted overnight, then randomized into groups (n=10-15) to receive the tested GPR120 agonist at doses ranging from 100 mg/kg or the vehicle (1% CMC, 2% TWEEN 80). Compounds were delivered orally via gavage at 10 mL/kg. Blood glucose levels were measured by glucometer (Ascensia Elite XL, Bayer) at time −30 minutes before administration of compound. Blood glucose was measured again after 30 minutes (at time 0), and then the mice were dosed intra peritoneally with 2 g/kg glucose at 10 mL/kg. Blood glucose measurements were taken 20, 40, 60, 90 and 120 minutes after glucose administration, by glucometer (Ascensia Elite XL, Bayer).
Glucose levels were plotted against time, and the incremental area under the curve (AUC) of the glucose excursion was determined from time 0 using Graphpad Prism 5.01. Outliers were excluded using Tukey's box plot outlier test, and statistical significance of differences in AUC of compound treatment compared to vehicle was determined by non-parametric Kruskal-Wallis test with Dunn's post test.
The compounds were tested at 30 mg/kg and the levels of blood glucose were determined in the presence and absence of the tested compounds. The percentage of glucose reduction is reported. […]

| % Activity (GW9508 Reference Compound) (human GPR120) | SMILES | inhibition in vivo at 30 mg/kg (C57BL/6J mice) |
| --- | --- | --- |
| 106.7955% | CC(Cc1ccc(OCc2cc(Cl)cc3c2OC(C)(C)C3)c(F)c1)C(=O)O (stereo not drawn) [Example 10, 3-(4-((5-chloro-2,2-dimethyl-2,3-dihydrobenzofuran-7-yl)methoxy)-3-fluorophenyl)-2-methylpropanoic acid] | 30.7% |
| 119.0442% | CC(Cc1ccc(OCc2cc(Cl)cc3c2OC(C)(C)C3)cc1)C(=O)O (stereo not drawn) [Example 13] | 31% |
| 42.73% | CC(C)C(CC(=O)O)c1ccc(OCc2cc(Cl)cc3c2OC(C)(C)C3)cc1 (stereo not drawn) [Example 266, 3-(4-((5-chloro-2,2-dimethyl-2,3-dihydrobenzofuran-7-yl)methoxy)phenyl)-4-methylpentanoic acid] | – |
| 140.82% | Cc1c(CCC(=O)O)ccc(OCc2cc(Cl)cc3c2CC(C)(C)O3)c1C [Example 267, 3-(4-((6-chloro-2,2-dimethyl-2,3-dihydrobenzofuran-4-yl)methoxy)-2,3-dimethylphenyl)propanoic acid] | – |
